Measurements from US20160010068A1, “FUSION POLYNUCLEOTIDES AND FUSION POLYPEPTIDES ASSOCIATED WITH CANCER AND PARTICULARLY MELANOMA AND THEIR USES AS THERAPEUTIC AND DIAGNOSTIC TARGETS” (priority 2013, published 2016).

Columns and labels:
[1] = molecular target: T1, PWWP2A-ROS1 fusion (Homo sapiens, UniProt P08922); test: Western blot of signaling in melan-a cells expressing the PWWP2A-ROS1 fusion, with crizotinib; type: cell-based; conditions: representative of three independent experiments
T1 construct: exon 1 of PWWP2A is fused with exon 36-43 of ROS1, which contains the tyrosine kinase domain; expressed in transfected cells; host or cells: melan-a cells (immortalized, non-tumorigenic mouse melanocytes), stably transduced with lentivirus (pLenti6.3/TO/V5-Dest)
Source text: FIG. 3 depicts ROS1 fusions. […] Scale bar, […]. Scale bar magnification, 50 mm. […] Scale bar, […]. Scale bar magnification, 50 mm. […] Scale bar, 10 mm. (c) Illustration of the PWWP2A-ROS1 kinase fusion. ROS1 is located on […], and PWWP2A on chromosome 5q33. Owing to genomic rearrangements, exon 1 of PWWP2A is fused with exon 36-43 of ROS1, which contains the tyrosine kinase domain. […] The indicated protein weight markers in kDa are estimated from molecular weight standards.
FIG. 8 depicts full western blots of FIG. 3d. (a) p-ROS1, (b) t-ROS1, (c) p-AKT, (d) t-AKT, (e) p-ERK, (f) t-ERK, (g) p-S6, (h) t-S6, (i) p-SHP2, (j) t-SHP2, (k) Hsp60. All molecular weight standards are indicated in kDa.

[2] = molecular target: T1, PWWP2A-ROS1 fusion; test: Western blot of phosphorylation in melan-a cells expressing PWWP2A-ROS1 fusion construct; type: cell-based, mouse; conditions: FIG. 3d
[3] = system: melanoma; conditions: twice daily; phase I trial; cited from earlier work

T1 sequence (P08922 with tags, fused parts or gaps): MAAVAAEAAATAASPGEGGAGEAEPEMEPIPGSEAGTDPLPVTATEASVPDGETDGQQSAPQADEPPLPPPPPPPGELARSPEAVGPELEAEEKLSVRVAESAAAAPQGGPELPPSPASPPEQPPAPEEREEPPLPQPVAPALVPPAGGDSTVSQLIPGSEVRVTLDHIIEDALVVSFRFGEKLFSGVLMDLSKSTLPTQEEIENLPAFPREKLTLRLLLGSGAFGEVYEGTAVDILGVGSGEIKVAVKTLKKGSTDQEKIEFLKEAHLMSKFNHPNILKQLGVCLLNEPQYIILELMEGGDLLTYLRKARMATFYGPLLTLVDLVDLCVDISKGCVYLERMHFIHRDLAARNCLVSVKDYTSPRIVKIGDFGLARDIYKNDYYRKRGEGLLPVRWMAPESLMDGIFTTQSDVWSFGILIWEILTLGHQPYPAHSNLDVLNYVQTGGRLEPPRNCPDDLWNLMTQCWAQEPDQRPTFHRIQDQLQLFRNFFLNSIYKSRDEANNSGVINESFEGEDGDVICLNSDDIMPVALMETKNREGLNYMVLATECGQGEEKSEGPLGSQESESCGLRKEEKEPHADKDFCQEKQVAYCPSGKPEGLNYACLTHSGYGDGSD

p-AKT [1] | p-S6 [1] | p-SHP2 [1] | phosphorylation of the chimeric PWWP2A-ROS1 fusion protein [1] | phosphorylation of ERK [2] | phosphorylation of PWWP2A-ROS1, AKT, S6 and SHP2 [2] | Compound | maximum tolerated dose [3] [mg]
inhibited at least partially | inhibited at least partially | inhibited at least partially | inhibited at least partially | not | at least partially inhibited | C[C@@H](Oc1cc(-c2cnn(C3CCNCC3)c2)cnc1N)c1c(Cl)ccc(F)c1Cl [Crizotinib, crizotinib] | 
 |  |  |  |  |  | CCCS(=O)(=O)Nc1ccc(F)c(C(=O)c2c[nH]c3ncc(-c4ccc(Cl)cc4)cc23)c1F [vemurafenib] | 60
